From ChEMBL document CHEMBL3392969, “SAR156497, an exquisitely selective inhibitor of aurora kinases” (J Med Chem, 2015) come the findings set out here.

As a reminder, the amount remaining is what is left of the initial amount, in per cent. Usually IC50 stands for the concentration that inhibits the measured activity by half. The low end stands for greater potency, the high end for weaker potency.

The nature of data set [1]: in vitro. The following applies: mouse, liver microsomes.
Description: Metabolic stability mouse liver microsomes assessed as stability at 5 uM by LC/MS-MS analysis
Data set [2] in a line: in vitro. The following applies: human, liver microsomes. A general note: Microsomes from liver hold many membrane-bound enzymes, among them those of drug oxidation.
Description: Metabolic stability human liver microsomes assessed as stability at 5 uM by LC/MS-MS analysis
The target of data set [3] is Cytochrome P450 3A4 (Homo sapiens, UniProt P08684).
Description: Inhibition of human recombinant CYP3A4 co-expressed with human P450 reductase/human b5 reductase using 7-benzyloxyquinoline substrate
The target in data set [4] is Aurora kinase B (Homo sapiens, UniProt Q96GD4).
Description: Inhibition of poly-histidine tagged full length recombinant aurora B (unknown origin) assessed as phosphorylation of NuMA-histidine substrate by scintillation counting analysis
In data set [5] the test system is HeLa. In words: cells. The following applies: Homo sapiens.
Description: (§1) Antiproliferative activity against human HeLa cells assessed as 14C-thymidine incorporation by Micro-Beta radioactivity counting analysis
Data set [6] deals with HeLa.
Description: as §1

Structures are written as SMILES.

Cytochrome P450 3A4, sequence (P08684 whole entry): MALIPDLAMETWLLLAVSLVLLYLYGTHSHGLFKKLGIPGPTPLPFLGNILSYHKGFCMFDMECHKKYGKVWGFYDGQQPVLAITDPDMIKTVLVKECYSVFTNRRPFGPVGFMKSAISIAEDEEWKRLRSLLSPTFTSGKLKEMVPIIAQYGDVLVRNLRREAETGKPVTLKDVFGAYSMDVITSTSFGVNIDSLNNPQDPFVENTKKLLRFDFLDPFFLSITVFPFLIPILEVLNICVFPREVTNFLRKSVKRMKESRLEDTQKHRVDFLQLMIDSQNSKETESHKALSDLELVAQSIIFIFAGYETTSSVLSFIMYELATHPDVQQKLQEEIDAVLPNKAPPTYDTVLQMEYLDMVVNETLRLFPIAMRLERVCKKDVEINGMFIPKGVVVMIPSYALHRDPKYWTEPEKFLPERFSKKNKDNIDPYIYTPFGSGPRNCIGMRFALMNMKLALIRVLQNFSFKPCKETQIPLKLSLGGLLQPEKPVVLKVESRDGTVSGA
Aurora kinase B, sequence (Q96GD4 whole entry): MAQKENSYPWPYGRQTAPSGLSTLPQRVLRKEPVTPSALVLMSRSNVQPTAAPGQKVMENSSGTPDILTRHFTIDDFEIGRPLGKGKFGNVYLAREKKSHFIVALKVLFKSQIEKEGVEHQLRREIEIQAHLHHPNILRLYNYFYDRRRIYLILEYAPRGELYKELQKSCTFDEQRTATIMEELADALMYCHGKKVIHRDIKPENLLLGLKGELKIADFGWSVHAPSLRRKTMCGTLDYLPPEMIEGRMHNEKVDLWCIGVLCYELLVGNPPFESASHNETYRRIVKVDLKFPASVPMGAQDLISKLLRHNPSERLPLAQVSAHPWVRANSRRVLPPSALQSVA

For `CCOC(=O)c1[nH]cc2c1NC1=C(C(=O)CCC1)C2c1ccc(Sc2nc3c(F)cc(F)cc3[nH]2)o1` (stereo not drawn), the amount remaining at 5 µM stood at 36% in data set [1] and 66% in data set [2]. Further, the values for the 50% inhibitory concentration (IC50) in data set [3] and in data set [4] were 1000 nM and 4 nM, respectively.

With `CCOC(=O)c1[nH]cc2c1NC1=C(C(=O)CN(C(=O)CN)C1)[C@H]2c1ccc(Sc2nc3ccccc3[nH]2)o1`, the amount remaining at 5 µM in data set [1] turned out to be 30%; in data set [2], 65%. Also, the half-maximal inhibitory concentration (IC50) in data set [3] worked out at 500 nM; in data set [4], 4 nM.

Turning to `CCOC(=O)c1[nH]cc2c1NC1=C(C(=O)CN(C(=O)CN)C1)[C@H]2c1ccc(Sc2nc3c(F)cccc3[nH]2)o1`, the share remaining at 5 µM in data set [1] is 17%; in data set [2], under 40%. The half-inhibitory concentration (IC50) in data set [4] was determined as 2 nM.

Consider `CCOC(=O)c1[nH]cc2c1NC1=C(C(=O)CCC1)C2c1cc(Sc2nc3ccccc3[nH]2)cs1` (racemic), for which the results for the IC50 in data set [5] and in data set [4] were 1500 nM and 2 nM, respectively.

Compound `O=C1CNCC2=C1C(c1cccc(Oc3cc(Cl)cc(Cl)c3)c1)c1c[nH]nc1N2` (racemic) registered an IC50 in data set [5] of over 10000 nM.

For the compound `O=C1CNCC2=C1C(c1cccc(Oc3ccccc3)c1)c1c[nH]nc1N2` (racemic), the IC50 in data set [5] was over 10000 nM.

Turning to `O=C1CNCC2=C1C(c1cccc(Oc3ccc(Cl)cc3)c1)c1c[nH]nc1N2` (racemic), the IC50 in data set [5] is over 10000 nM.

Turning to `COc1ccc(Oc2cccc(C3C4=C(CNCC4=O)Nc4n[nH]cc43)c2)cc1` (racemic), the half-inhibitory concentration (IC50) in data set [5] was over 10000 nM.

The compound `O=C1CNCC2=C1C(c1cccc(Oc3ccc(Cl)c(Cl)c3)c1)c1c[nH]nc1N2` (racemic) showed an IC50 in data set [5] of over 10000 nM.

Turning to `O=C1CNCC2=C1C(c1ccc(Sc3nc4ccccc4[nH]3)o1)c1c[nH]nc1N2` (racemic), in data set [5], the IC50 is over 10000 nM.

Consider `O=C1CCCC2=C1C(c1ccc(Sc3nc4ccccc4[nH]3)o1)c1cn[nH]c1N2` (racemic), for which the concentration for half-maximal inhibition (IC50) in data set [5] turned out to be 300 nM; in data set [4], 5 nM.

On to `O=C1CCCC2=C1C(c1ccc(Sc3nc4ccccc4[nH]3)o1)c1n[nH]cc1N2` (racemic), for which the results for the IC50 in data set [5] and in data set [4] were over 10000 nM and 500 nM, respectively.

On to `CCOC(=O)c1[nH]nc2c1NC1=C(C(=O)CCC1)C2c1ccc(Sc2nc3ccccc3[nH]2)o1` (racemic), for which the half-maximal inhibitory concentration (IC50) stood at 7700 nM in data set [5] and 33 nM in data set [4].

For the compound `NC(=O)c1[nH]nc2c1NC1=C(C(=O)CCC1)C2c1ccc(Sc2nc3ccccc3[nH]2)o1` (racemic), the half-inhibitory concentration (IC50) in data set [5] was over 10000 nM; in data set [4], 19 nM.

Compound `Nc1nc(O)c2c(n1)NC1=C(C(=O)CCC1)C2c1ccc(Sc2nc3ccccc3[nH]2)o1` (racemic) returned a half-maximal inhibitory concentration (IC50) in data set [5] of over 10000 nM.

As to `COC(=O)c1csc2c1NC1=C(C(=O)CCC1)C2c1ccc(Sc2nc3ccccc3[nH]2)o1` (racemic), the 50% inhibitory concentration (IC50) in data set [5] came to 127 nM; in data set [4] it was 5 nM.

In data set [6], `CCOC(=O)c1[nH]cc2c1NC1=C(C(=O)CCC1)C2c1ccc(Sc2nc3ccccc3[nH]2)o1` (racemic) came in with a 50% inhibitory concentration (IC50) of 15 nM.

As to `CCOC(=O)c1[nH]cc2c1NC1=C(C(=O)CNC1)C2c1ccc(Sc2nc3ccccc3[nH]2)o1` (racemic), the values for the amount remaining at 5 µM in data set [1] and in data set [2] were 60% and 66%, respectively. Besides, the values for the 50% inhibitory concentration (IC50) in data set [3] and in data set [4] were 170 nM and 2 nM, respectively.

`CCOC(=O)c1[nH]cc2c1NC1=C(C(=O)CCC1)C2c1ccc(Sc2nc3cc(F)ccc3[nH]2)o1` (racemic): the share remaining at 5 µM in data set [1] is 77%; in data set [2], 73%. Also, the 50% inhibitory concentration (IC50) in data set [3] came to 12000 nM.

Regarding `CCOC(=O)c1[nH]cc2c1NC1=C(C(=O)CCC1)C2c1ccc(Sc2nc3cccc(F)c3[nH]2)o1` (racemic), the amount remaining at 5 µM in data set [1] is 58%; in data set [2], 47%. Also, the results for the IC50 in data set [3] and in data set [4] were 4500 nM and 6 nM, respectively.

As for `CCOC(=O)c1[nH]cc2c1NC1=C(C(=O)CCC1)C2c1ccc(Sc2nc3cc(F)c(F)cc3[nH]2)o1` (racemic), the figures for the fraction remaining at 5 µM in data set [1] and in data set [2] were 55% and 58%, respectively. The compound further gave an IC50 in data set [3] of 8400 nM.

In the case of `CCOC(=O)c1[nH]cc2c1NC1=C(C(=O)CCC1)C2c1ccc(Sc2nc3ccc(F)c(F)c3[nH]2)o1` (racemic), the share remaining at 5 µM in data set [1] and in data set [2] was 66% each time. Moreover, the IC50 in data set [3] came out at 34000 nM.

For the compound `CCOC(=O)c1[nH]cc2c1NC1=C(C(=O)CCC1)C2c1ccc(Sc2nc3c(F)c(F)c(F)cc3[nH]2)o1` (racemic), the share remaining at 5 µM is 22% in data set [1] and 46% in data set [2].

For `CCOC(=O)c1[nH]cc2c1NC1=C(C(=O)CCC1)C2c1ccc(Sc2nc3cccc(Cl)c3[nH]2)o1` (racemic), the share remaining at 5 µM in data set [1] amounted to 85%; in data set [2] it was 68%. Moreover, the IC50 came out at 50 nM in data set [3] and 7 nM in data set [4].

On to `CCOC(=O)c1[nH]cc2c1NC1=C(C(=O)CCC1)C2c1ccc(Sc2nc3cc(Cl)ccc3[nH]2)o1` (racemic), for which the results for the amount remaining at 5 µM in data set [1] and in data set [2] were 88% and 90%, respectively.

Turning to `CCOC(=O)c1[nH]cc2c1NC1=C(C(=O)CCC1)C2c1ccc(Sc2nc3cccnc3[nH]2)o1` (racemic), the amount remaining at 5 µM in data set [1] and in data set [2] was 49% in each case.

Take `CCOC(=O)c1[nH]cc2c1NC1=C(C(=O)CCC1)C2c1ccc(Sc2nc3c(O)cccc3[nH]2)o1` (racemic): the share remaining at 5 µM stood at 37% in data set [1] and 40% in data set [2]. Further, the IC50 in data set [3] is 490 nM; in data set [4] it was 8 nM.

Take `CCOC(=O)c1[nH]cc2c1NC1=C(C(=O)CCC1)C2c1ccc(Sc2nc3c(N)cccc3[nH]2)o1` (racemic): the share remaining at 5 µM is 35% in data set [1] and 23% in data set [2]. Moreover, it took 25 nM to reach half-maximal inhibition in data set [4] (IC50).

For the compound `CCOC(=O)c1[nH]cc2c1NC1=C(C(=O)CN(CC)C1)C2c1ccc(Sc2nc3ccccc3[nH]2)o1` (racemic), the figures for the share remaining at 5 µM in data set [1] and in data set [2] were 99% and 65%, respectively. In data set [4], this compound yielded a half-inhibitory concentration (IC50) of 6 nM.

On to `CCOC(=O)c1[nH]cc2c1NC1=C(C(=O)CNC1)C2c1ccc(Sc2nc3cccc(Cl)c3[nH]2)o1` (racemic), for which the 50% inhibitory concentration (IC50) in data set [4] was found to be 5 nM.

`CCOC(=O)c1[nH]cc2c1NC1=C(C(=O)CNC1)C2c1ccc(Sc2nc3c(F)cccc3[nH]2)o1` (racemic) came in with a half-inhibitory concentration (IC50) in data set [4] of 3 nM.

Regarding `CCOC(=O)c1[nH]cc2c1NC1=C(C(=O)CN(C(=O)OC(C)(C)C)C1)C2c1ccc(Sc2nc3ccccc3[nH]2)o1` (racemic), inhibition in data set [4] was half-maximal at 26 nM (IC50).

Regarding `CCOC(=O)c1[nH]cc2c1NC1=C(C(=O)CN(Cc3ccccc3)C1)C2c1ccc(Sc2nc3ccccc3[nH]2)o1` (racemic), the half-maximal inhibitory concentration (IC50) in data set [4] was determined as 8 nM.

Take `CCOC(=O)c1[nH]cc2c1NC1=C(C(=O)CCC1)C2c1ccc(Sc2nc3ccccc3[nH]2)s1` (racemic): the IC50 amounted to 4600 nM in data set [5] and 180 nM in data set [4].

In data set [5], `CCOC(=O)c1[nH]cc2c1NC1=C(C(=O)CCC1)C2c1cnc(Sc2nc3ccccc3[nH]2)s1` (racemic) came in with an IC50 of over 10000 nM.

With `CCOC(=O)c1[nH]cc2c1NC1=C(C(=O)CCC1)C2c1cccc(Sc2nc3ccccc3[nH]2)c1` (racemic), the IC50 is 9700 nM in data set [5] and 7 nM in data set [4].

Consider `CCOC(=O)c1[nH]cc2c1NC1=C(C(=O)CCC1)C2c1cccc(Sc2nc3ccccc3[nH]2)n1` (racemic), for which the IC50 in data set [5] was found to be 4400 nM; in data set [4], 7 nM.

For `CCOC(=O)c1[nH]cc2c1NC1=C(C(=O)CCC1)C2c1ccnc(Sc2nc3ccccc3[nH]2)c1` (racemic), the IC50 in data set [5] was over 10000 nM; in data set [4], 1100 nM.

Regarding `CCOC(=O)c1[nH]cc2c1NC1=C(C(=O)CCC1)C2c1cccc(Oc2nc3ccccc3[nH]2)c1` (racemic), the figures for the IC50 in data set [5] and in data set [4] were 200 nM and 12 nM, respectively.

Turning to `O=C1CCCC2=C1C(c1ccc(Sc3nc4ccccc4[nH]3)o1)c1c[nH]cc1N2` (single isomer, unassigned; (+)), the IC50 in data set [5] worked out at 3700 nM; in data set [4] it was 127 nM.

On to `CCOC(=O)c1[nH]cc2c1NC1=C(C(=O)CCC1)C2c1ccc(Sc2nc3ccccc3[nH]2)o1` (single isomer, unassigned; (+)), for which the amount remaining at 5 µM in data set [1] worked out at 83%; in data set [2], 69%. Also, the concentration for half-maximal inhibition (IC50) was found to be 16 nM in data set [6] and 190 nM in data set [3].

Turning to `COC(=O)c1[nH]cc2c1NC1=C(C(=O)CCC1)C2c1ccc(Sc2nc3ccccc3[nH]2)o1` (single isomer, unassigned; (+)), in data set [5], inhibition was half-maximal at 26 nM (IC50).

For the compound `O=C1CCCC2=C1C(c1ccc(Sc3nc4ccccc4[nH]3)o1)c1c[nH]c(C(=O)O)c1N2` (single isomer, unassigned; (+)), the IC50 in data set [5] worked out at 8750 nM; in data set [4] it was 16 nM.

`CCOC(=O)c1[nH]cc2c1NC1=C(C(=O)CCC1)C2c1ccc(Sc2nc3ccccc3[nH]2)o1` (single isomer, unassigned; (-)) returned an IC50 in data set [6] of 7000 nM. In other words, the single-digit micromolar range.
